In the NIST ThermoML archive (doi:10.1016/j.tca.2011.02.002):
Numbers after ± are expanded uncertainties.

Columns and labels:
[1] = 101 kPa, Liquid; for mass density: Vibrating tube method
[2] = xn = mol fraction of the nth substance listed; conditions: 101 kPa, Liquid, x1 = 1; for mass density: Vibrating tube method

speed of sound ([1]; 298.15 K) [m/s]	mass density ([1]; 298.15 K) [kg/m3]	speed of sound ([1]; 303.15 K) [m/s]	mass density ([1]; 303.15 K) [kg/m3]	speed of sound ([1]; 308.15 K) [m/s]	mass density ([1]; 308.15 K) [kg/m3]	Structure (SMILES)	mass density ([2]; 298.15 K) [kg/m3]	speed of sound ([2]; 298.15 K) [m/s]	mass density ([2]; 303.15 K) [kg/m3]	speed of sound ([2]; 303.15 K) [m/s]	mass density ([2]; 308.15 K) [kg/m3]	speed of sound ([2]; 308.15 K) [m/s]
						C1CCOCC1 [tetrahydropyran] + c1ccncc1	879.136 ± 0.91	1269.9 ± 2	873.992 ± 0.9	1246.8 ± 2	868.831 ± 0.89	1224.5 ± 2
1424 ± 2	952.002 ± 1	1404 ± 2	947.449 ± 1	1384 ± 2	942.831 ± 0.99	Cc1cccnc1 [3-methylpyridine]						
1380.1 ± 2	939.802 ± 0.99	1361 ± 2	935.117 ± 0.98	1339.9 ± 2	930.414 ± 0.98	Cc1ccccn1 [2-methylpyridine]						
						C1CCOCC1 [tetrahydropyran] + Cc1ccccn1	879.136 ± 0.91	1269.9 ± 2	873.992 ± 0.9	1246.8 ± 2	868.831 ± 0.89	1224.5 ± 2
						C1CCOCC1 [tetrahydropyran] + Cc1cccnc1	879.136 ± 0.91	1269.9 ± 2	873.992 ± 0.9	1246.8 ± 2	868.831 ± 0.89	1224.5 ± 2
						C1CCOCC1 [tetrahydropyran] + Cc1ccncc1	879.136 ± 0.91	1269.9 ± 2	873.992 ± 0.9	1246.8 ± 2	868.831 ± 0.89	1224.5 ± 2
1431.5 ± 1	950.179 ± 0.3	1410.7 ± 1	945.413 ± 0.3	1389.9 ± 1	940.821 ± 0.3	Cc1ccncc1 [4-methylpyridine]						

Structure (SMILES)	speed of sound ([1]; 298.15 K) [m/s]	mass density ([1]; 298.15 K) [kg/m3]	speed of sound ([1]; 303.15 K) [m/s]	mass density ([1]; 303.15 K) [kg/m3]	speed of sound ([1]; 308.15 K) [m/s]	mass density ([1]; 308.15 K) [kg/m3]	mass density ([2]; 298.15 K) [kg/m3]	speed of sound ([2]; 298.15 K) [m/s]	mass density ([2]; 303.15 K) [kg/m3]	speed of sound ([2]; 303.15 K) [m/s]	mass density ([2]; 308.15 K) [kg/m3]	speed of sound ([2]; 308.15 K) [m/s]
c1ccncc1 [pyridine]	1417.6 ± 1.1	978.249 ± 0.3	1397.4 ± 1.1	973.224 ± 0.3	1377.1 ± 1.1	968.166 ± 0.3						
C1CCOCC1 [tetrahydropyran]	1269.9 ± 2	879.136 ± 0.91	1246.8 ± 2	873.992 ± 0.9	1224.5 ± 2	868.831 ± 0.89						
